The results in this text go back to publication PMC8443589, “Modelling human liver fibrosis in the context of non-alcoholic steatohepatitis using a microphysiological system” (Communications Biology, 2021).

Assay [1] relates to liver MPS NASH model (PHH, KC and HSC co-cultures, high fat). Description: Quantitative confocal imaging of collagen type 1 and alpha SMA in liver MPS NASH model dosed with OCA or ELF. Particulars: for Collagen type 1 fluroscent marker intensity: per MPS scaffold; for reduction of collagen-1 deposition / reduction of α-SMA expression: fat only NASH model, 10 days; for reduction of α-SMA expression: concentration-dependent. Type of assay: cell-based, human. How it is done: (§1) Fig. 3 Obeticholic acid and Elafibranor both modulate inflammatory and fibrosis phenotype in liver MPS NASH model and phenotype can additionally be reversed with dietary changes. PHH, KC and HSC co-cultures were cultured in the MPS platform under high fat conditions and dosed with varying concentrations of Obeticholic acid (OCA) and Elafibranor (ELF) QD or vehicle control (control) for 10 days, following an initial 4-day pre-culture phase. a The secreted cytokine profile from liver microtissues was compared by Luminex to determine the effects of each compound on the inflammatory profile of the liver with samples analysed at day 8 and 14 of the culture. Data were normalised by Z-transformation to allow comparison of all analytes and presented as a heatmap. b The expression of fibrosis-associated genes was analysed in total RNA from control, OCA and ELF treated liver microtissues (highest concentration for each compound) using Human Fibrosis RT2 Profiler PCR Arrays. Gene expression changes are expressed as a fold change over control. c Liver microtissues were stained for collagen-type I, α-SMA, nuclei (DAPI - blue), phalloidin (green) and imaged by confocal microscopy. Representative images are shown and scale bars 200 µm. d Staining of microtissue was quantified by measuring total fluorescence intensity throughout individual microtissues, each data point represents an average of all the microtissues imaged within an MPS scaffold (min 8, max 20 microtissues). e PHH, KC and HSC co-cultures were cultured in the MPS platform under high fat or lean conditions for 30 days. Cultures either remained in the same type of media throughout or were switched at day 15 from fat media to lean media (Fat -> Lean). Cell culture medium samples were analysed for the presence of IL-6, f MCP-1, g TIMP-1, which were measured by ELISA. h Microtissues were stained with Oil-Red O to determine fat loading during culture period, total stain was quantified by absorbance at 510 nm. All datapoints shown, either as box-whisker plots highlighting mean and min-max or with error bars highlighting means ± SD. All data from a minimum of three independent cultures; statistical comparisons made to control samples unless other comparison shown.
To visualise fibrosis proteins in the liver microtissues, scaffolds were fixed for 15 min in 4% paraformaldehyde following culture in the MPS platform. They were permeabilized with 0.1% Triton-X and blocked with 2% BSA before staining overnight at 4 °C with antibodies against alpha SMA (Abcam, UK - ab7817) and collagen 1 (Rockland, USA—600 401 103 0.5). Scaffolds were then stained with fluorescently conjugated secondary antibodies (Alexa-Fluor 555 goat anti-rabbit #A21429; Alexa-Fluor 647 donkey anti-rabbit #A31573; Alexa-Fluor 555 goat anti-mouse #A21424; Alexa-Fluor 647 goat anti-mouse #A21235 (Thermofisher, UK) along with Phalloidin 488 (Thermofisher, UK) and Hoechst 33342 (Invitrogen) for 1.5 h at room temperature. Scaffolds were washed three times with PBS and mounted onto glass microscope slides with anti-fade mounting medium. Confocal fluorescent images of the stained scaffolds were captured using a Cell Voyager 7000 (CV700, Yokogawa Inc.) automated confocal microscope. Image acquisition was controlled using the SearchFirst functionality of the Wako Software suite (Fujifilm Wako Automation). A workflow was designed to automatically locate and acquire images of each scaffold in a consistent and unbiased manner (Supp. Fig. 1). The workflow consisted of a first round of acquisition where the entire slide is imaged at low (4×) magnification capturing the Hoechst channel only. Images were automatically stitched together using a MATLAB script and eight regions of interest (ROI) were identified on each scaffold (same array of ROI per scaffold). XY coordinates were fed back to the microscope which subsequently imaged each ROI with full Z stacks obtained at ×10 magnification, 120 µm stack with a 5 µm slice interval. […]

Assay [2] shares this test system. Description: Fibrosis gene expression (Human Fibrosis RT2 Profiler PCR Arrays) in liver MPS NASH model dosed with OCA or ELF. It counts as cell-based. To be noted: 10 days, individual cultures. How it is done:
as §1
Total RNA was extracted from liver microtissue-containing scaffolds using TRIzol® Reagent (Ambion, USA) and a chloroform phase separation. RNA was precipitated from aqueous phase samples using 100% isopropanol and RNA pellets were resuspended in dH2O. Samples were analysed by both QPCR and RNAseq. For QPCR, reverse transcription and PCR were performed using RT2 First Strand Kit and Human Fibrosis RT² Profiler™ PCR Arrays (PAHS-120Z) (Qiagen, UK), with samples analysed on a Quantstudio 6 Real-Time PCR System (Applied Biosystems, UK). Ct values from samples were compared and normalised to house-keeping gene expression. The fold-change in each transcript represented on the array plate was determined using RT2 Profiler™ PCR Array Data Analysis (v. 3.5) Web Portal (Qiagen, UK).
Liver microtissues were cultured for 4 days in HEP-FAT medium, before dosing with obeticholic acid or elafibranor. Both compounds were dissolved in DMSO, diluted in cell culture medium (final DMSO concentration ≤1%) and added to microtissues during a full medium change every two days and in addition on the intervening days compounds were spiked into the media to increase drug concentration back to desired concentrations. Cultures were maintained in the presence of the compound, for a total of 10 days in the presence or absence of TGFβ.

Values joined by “and” are separate entries in the source; they are usually repeats but may differ in a detail not shown here. Equal values may be shown once.

Take `CC[C@H]1[C@@H](O)[C@@H]2[C@H](CC[C@]3(C)[C@@H]([C@H](C)CCC(=O)O)CC[C@@H]23)[C@@]2(C)CC[C@@H](O)C[C@@H]12` [Obeticholic acid]: the “Collagen type 1 fluroscent marker intensity” value in assay [1] (OCA 0.25 uM QD 10 days, listed as OCA) is 2993.61 and 2644.36 and 2590.02 and 1579.53. Moreover, in assay [1] (OCA 5 uM QD 10 days, listed as OCA), the “Collagen type 1 fluroscent marker intensity” value was 1471.67 and 1379.09 and 1471.56 and 1817.03 and 1176.35 and 1231.08. In assay [1], the “reduction of collagen-1 deposition” value is on record as “up to 35%” and the “reduction of α-SMA expression” value was “up to 50%”. Further, in assay [2] (12.5 uM OCA, listed as OCA), the “CCL2 relative gene expression compared to GAPDH housekeeping gene” value was 5.71e-9 and 9.72e-9 and 5e-9; the “CCL3 relative gene expression compared to GAPDH housekeeping gene” value was 1.11e-9 and 5.96e-10 and 3.11e-10; the “CCL11 relative gene expression compared to GAPDH housekeeping gene” value is 3.39e-10 and 4.66e-10 and 1.94e-10; the “CEBPB relative gene expression compared to GAPDH housekeeping gene” value is 3e-8 and 1.33e-8 and 1.62e-8. Besides, in assay [2] (12.5 uM OCA, listed as OCA), the “CXCR4 relative gene expression compared to GAPDH housekeeping gene” value was 2.04e-9 and 8.2e-10 and 6.3e-10; the “DCN relative gene expression compared to GAPDH housekeeping gene” value is 3.44e-7 and 1.39e-7 and 1.03e-7; the “HGF relative gene expression compared to GAPDH housekeeping gene” value was 1.68e-9 and 5.3e-10 and 3.89e-10; the “MMP1 relative gene expression compared to GAPDH housekeeping gene” value is 9.31e-10 and 1.58e-9 and 2.05e-9. Also, in assay [2] (12.5 uM OCA, listed as OCA), the “MMP9 relative gene expression compared to GAPDH housekeeping gene” value was 1.47e-8 and 5.79e-9 and 3e-9.

Regarding `CSc1ccc(C(=O)/C=C/c2cc(C)c(OC(C)(C)C(=O)O)c(C)c2)cc1` [Elafibranor], the “Collagen type 1 fluroscent marker intensity” value in assay [1] (ELF 13 uM QD 10 days, listed as ELF) was 1659.63 and 1182.93 and 1579.82 and 1137.61 and 1507.1. In assay [1], the “reduction of collagen-1 deposition” value is “up to 35%” and the “reduction of α-SMA expression” value is recorded as “up to 50%”. Also, in assay [2] (65.0 uM ELF, listed as ELF), the “CCL2 relative gene expression compared to GAPDH housekeeping gene” value is 3.92e-9 and 2.6e-9 and 6.31e-9; the “CCL3 relative gene expression compared to GAPDH housekeeping gene” value is 3.39e-10 and 1.55e-10 and 3.45e-10; the “CCL11 relative gene expression compared to GAPDH housekeeping gene” value was 4.99e-10 and 6.3e-10 and 6.52e-10; the “CEBPB relative gene expression compared to GAPDH housekeeping gene” value is 1.2e-8 and 1.1e-8 and 2.65e-8. For the same compound, in assay [2] (65.0 uM ELF, listed as ELF), the “CXCR4 relative gene expression compared to GAPDH housekeeping gene” value is 1.13e-9 and 7.47e-10 and 1.7e-9; the “DCN relative gene expression compared to GAPDH housekeeping gene” value is 2.4e-7 and 1.65e-7 and 3.13e-7; the “HGF relative gene expression compared to GAPDH housekeeping gene” value was 6.26e-10 and 2.45e-10 and 6.68e-10; the “MMP1 relative gene expression compared to GAPDH housekeeping gene” value was 2.95e-9 and 8.23e-10 and 3.25e-9. In addition, the “MMP9 relative gene expression compared to GAPDH housekeeping gene” value in assay [2] (65.0 uM ELF, listed as ELF) is 1.04e-8 and 2.47e-9 and 9.28e-9.
